# Publication doi:10.1101/2021.03.24.436638v1 (biorxiv, 2021)
# Target: T1, GlyT2 (wtGlyT2) (Rattus norvegicus, UniProt P58295)
# T1 sequence (P58295 1-799): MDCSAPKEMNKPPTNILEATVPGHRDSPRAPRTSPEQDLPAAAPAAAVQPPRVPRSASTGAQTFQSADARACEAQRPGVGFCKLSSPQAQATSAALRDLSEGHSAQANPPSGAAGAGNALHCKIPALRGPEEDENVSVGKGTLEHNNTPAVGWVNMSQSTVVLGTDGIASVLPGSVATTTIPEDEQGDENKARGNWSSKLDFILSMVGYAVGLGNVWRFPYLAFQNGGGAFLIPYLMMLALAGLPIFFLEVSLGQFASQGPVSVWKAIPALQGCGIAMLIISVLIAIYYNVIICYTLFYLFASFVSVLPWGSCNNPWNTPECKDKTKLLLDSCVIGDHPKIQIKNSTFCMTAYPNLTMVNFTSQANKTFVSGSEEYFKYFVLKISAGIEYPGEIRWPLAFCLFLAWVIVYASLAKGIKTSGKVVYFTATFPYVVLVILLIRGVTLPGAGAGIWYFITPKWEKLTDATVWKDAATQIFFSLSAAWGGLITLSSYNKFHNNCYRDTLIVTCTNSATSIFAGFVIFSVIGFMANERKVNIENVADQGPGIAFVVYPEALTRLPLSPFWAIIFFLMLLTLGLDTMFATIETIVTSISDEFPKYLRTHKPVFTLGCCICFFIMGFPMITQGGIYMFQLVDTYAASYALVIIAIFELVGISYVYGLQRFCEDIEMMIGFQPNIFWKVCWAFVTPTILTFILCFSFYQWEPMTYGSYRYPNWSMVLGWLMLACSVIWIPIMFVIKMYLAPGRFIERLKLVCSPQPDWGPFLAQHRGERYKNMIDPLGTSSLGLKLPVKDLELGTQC
# Experiment: [3H]glycine uptake inhibition in transfected COS7 cells
# Format: cell-based
smiles,measurement,value
CCCCC/C=C\C/C=C\C/C=C\C/C=C\CCCC(=O)NCC(=O)O [N-arachidonoyl glycine],IC50,67 ± 23 µM
